Reference: paper PMC4666645 (PLoS Pathogens, 2015)
Counter-ions that a name gives are not always drawn. Like-named read-outs stand apart in the source and are kept apart here.

Key:
Hco-26/27 receptor = Hco-26/27 receptor (Haemonchus contortus, UniProt A9XX30+S4VAP0); assay: cell-based
From the text: In order to investigate if the overlapping expression contributed to functional receptors, we co-expressed Hco-ACR-26 and Hco-ACR-27 in Xenopus laevis oocytes. We have previously reported that the functional expression of nematode muscle AChRs in Xenopus oocytes requires the addition of ancillary proteins. Therefore, cRNAs encoding the subunits Hco-ACR-26 and Hco-ACR-27, in combination with three ancillary proteins (Hco-ric-3.1, Hco-unc-74 and Hco-unc-50) were co-injected into Xenopus oocytes. […] Subsequently, different cRNA combinations were injected into Xenopus oocytes in order to determine the minimal subunit combination leading to the expression of a functional receptor and verify the ancillary factor requirement.
The subunit stoichiometry has been previously reported to impact the pharmacological properties of some nematode AChRs expressed in Xenopus oocytes.
(§1) H. contortus and P. equorum acr-26 and acr-27 cDNAs were PCR-amplified using primers containing a restriction site in order to be sub-cloned into the expression vector pTB207 that is suitable for in vitro transcription. Primers are listed in S3 Table. The resulting plasmids were linearized with the NheI restriction enzyme (Fermantas) and used as templates for cRNA synthesis using the T7 mMessage mMachine kit (Ambion). Xenopus laevis ovaries were obtained from the University of Rennes, France (CRB Xenope) and defolliculated using 2 mg/ml collagenase type II (Gibco) in the incubation solution containing: 100 mM NaCl, 2 mM KCl, 1.8 mM CaCl2.2H2O, 1 mM MgCl2.6H2O, 5 mM HEPES, 2.5 mM C3H3NaO3, pH 7.5, supplemented with penicillin 100 U/mL and streptomycin 100 μg/mL). The oocytes were injected in the animal pole with a total volume of 36 nL of cRNA mix containing 50 ng/μL of each cRNA in RNase-free water using the Drummond nanoject II microinjector. Microinjected oocytes were kept at 20°C in incubation medium for 4 days to allow the receptors expression. Two-electrode voltage-clamp recordings were carried out using an Oocyte Clamp OC-725C amplifier (Warner instrument) in oocytes being voltage-clamped at -60mV. All agonist preparations were prepared with recording buffer (100 mM NaCl, 2.5 mM KCl, 1 mM CaCl2.2H2O, 5 mM HEPES, pH 7.3). Currents were recorded and analyzed using the pCLAMP 10.4 package (Molecular Devices).

Peq-26/27 receptor = Peq-26/27 receptor (Parascaris equorum, UniProt A0A0U2ES47+A0A0U2ES58); assay: cell-based
Sequence of Peq-26/27 receptor (A0A0U2ES58 entry or part of it): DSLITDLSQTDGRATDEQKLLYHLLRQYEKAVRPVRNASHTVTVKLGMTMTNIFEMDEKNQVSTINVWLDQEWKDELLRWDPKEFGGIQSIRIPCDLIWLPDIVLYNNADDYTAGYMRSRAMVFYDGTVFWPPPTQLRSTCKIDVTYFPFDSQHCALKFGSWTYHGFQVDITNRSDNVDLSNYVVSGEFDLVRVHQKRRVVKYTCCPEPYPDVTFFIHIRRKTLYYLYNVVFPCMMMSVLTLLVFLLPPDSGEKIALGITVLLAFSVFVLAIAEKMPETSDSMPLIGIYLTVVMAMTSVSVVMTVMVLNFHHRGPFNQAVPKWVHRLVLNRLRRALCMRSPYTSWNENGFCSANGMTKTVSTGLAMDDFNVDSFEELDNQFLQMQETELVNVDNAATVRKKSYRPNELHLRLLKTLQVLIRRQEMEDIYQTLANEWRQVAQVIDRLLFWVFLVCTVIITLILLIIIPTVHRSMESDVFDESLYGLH
Sequence of Peq-26/27 receptor (A0A0U2ES47 entry or part of it): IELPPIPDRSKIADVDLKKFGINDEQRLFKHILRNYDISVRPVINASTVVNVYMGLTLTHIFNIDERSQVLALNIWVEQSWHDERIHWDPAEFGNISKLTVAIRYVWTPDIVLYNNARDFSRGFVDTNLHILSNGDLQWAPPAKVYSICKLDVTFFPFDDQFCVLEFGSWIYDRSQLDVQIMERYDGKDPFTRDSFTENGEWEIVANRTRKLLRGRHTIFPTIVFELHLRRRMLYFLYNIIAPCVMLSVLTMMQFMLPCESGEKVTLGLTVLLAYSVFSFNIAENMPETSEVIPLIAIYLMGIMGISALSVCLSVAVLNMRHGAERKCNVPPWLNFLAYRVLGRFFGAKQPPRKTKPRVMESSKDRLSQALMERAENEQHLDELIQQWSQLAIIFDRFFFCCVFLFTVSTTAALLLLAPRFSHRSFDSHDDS
Procedure: In order to determine if ACR-26 and ACR-27 subunits from other parasitic nematodes species could also form functional receptors when expressed in Xenopus oocyte, Peq-acr-26 and Peq-acr-27 cRNAs from the distantly related P. equorum (Clade III) were co-injected in combination with Hco-ric-3.1, Hco-unc-74 and Hco-unc-50 cRNAs. Four days after injection, we observed robust expression of a functional AChR responding to 100 μM ACh (Fig 6B). […] This novel heteropentameric AChR was named Peq-26/27.
as §1

[1] = 100 μM agonist, normalized to 100 μM ACh current, equal subunit ratio
[2] = read-out: Relative maximal current (Imax) normalized to 100 μM acetylcholine, cRNA ratio 1:1 26/27, 100 μM agonist

Sequence of Hco-26/27 receptor (A9XX30 entry or part of it): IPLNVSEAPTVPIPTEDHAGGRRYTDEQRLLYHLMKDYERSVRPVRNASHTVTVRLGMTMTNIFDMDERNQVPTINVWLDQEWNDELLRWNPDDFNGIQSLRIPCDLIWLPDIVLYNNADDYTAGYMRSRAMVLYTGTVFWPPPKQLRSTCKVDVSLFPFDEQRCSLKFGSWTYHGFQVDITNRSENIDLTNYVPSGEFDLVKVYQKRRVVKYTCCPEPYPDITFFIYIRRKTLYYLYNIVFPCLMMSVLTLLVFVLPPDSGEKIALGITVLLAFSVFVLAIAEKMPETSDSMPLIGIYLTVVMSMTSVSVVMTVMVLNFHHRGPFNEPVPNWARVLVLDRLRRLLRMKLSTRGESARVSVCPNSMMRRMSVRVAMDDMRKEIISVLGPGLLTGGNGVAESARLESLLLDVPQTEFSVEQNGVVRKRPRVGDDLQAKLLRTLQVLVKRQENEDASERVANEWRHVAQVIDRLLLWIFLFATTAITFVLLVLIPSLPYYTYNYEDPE
Sequence of Hco-26/27 receptor (S4VAP0 entry or part of it): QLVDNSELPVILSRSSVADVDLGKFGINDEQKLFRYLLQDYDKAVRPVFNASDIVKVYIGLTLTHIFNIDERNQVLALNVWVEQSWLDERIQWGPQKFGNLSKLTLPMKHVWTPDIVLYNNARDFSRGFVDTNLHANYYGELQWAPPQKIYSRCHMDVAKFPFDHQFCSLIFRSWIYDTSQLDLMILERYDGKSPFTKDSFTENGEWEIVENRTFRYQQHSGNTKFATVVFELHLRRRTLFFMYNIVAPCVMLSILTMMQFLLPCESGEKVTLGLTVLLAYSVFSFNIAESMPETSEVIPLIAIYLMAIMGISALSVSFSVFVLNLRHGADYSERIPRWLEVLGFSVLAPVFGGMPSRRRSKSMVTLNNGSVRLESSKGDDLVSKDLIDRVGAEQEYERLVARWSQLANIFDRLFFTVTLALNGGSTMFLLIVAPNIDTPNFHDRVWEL

## CC(=O)OCC[N+](C)(C)C [ACh, Acetylcholine chloride]
Hco-26/27 receptor
  EC50: 80.1 ± 1.1 µM
Hco-26/27 receptor; cRNA ratio 1:1 26/27, 100 μM agonist, read-out: Relative maximal current (Imax) normalized to 100 μM acetylcholine
  Emax at 100 µM: 100%
Hco-26/27 receptor; cRNA ratio 1:5 26/27, 100 μM agonist, read-out: Relative maximal current (Imax) normalized to 100 μM acetylcholine
  Emax at 100 µM: 100%
Hco-26/27 receptor; cRNA ratio 5:1 26/27, 100 μM agonist, read-out: Relative maximal current (Imax) normalized to 100 μM acetylcholine
  Emax at 100 µM: 100%
Peq-26/27 receptor
  EC50: 34.9 ± 1.1 µM

## C[N+](C)(CCOc1ccccc1)Cc1ccccc1 [Beph, bephenium]
Hco-26/27 receptor; [1]
  Current elicited, % of ACh response: insensitive
Hco-26/27 receptor; [2]
  Emax at 100 µM: 3.21 ± 1.61%
Hco-26/27 receptor; read-out: Relative maximal current (Imax) normalized to 100 μM acetylcholine, cRNA ratio 1:5 26/27, 100 μM agonist
  Emax at 100 µM: 2.26 ± 2.26%

## CN1CCC[C@H]1c1cccnc1 [Nic, (-)-nicotine hydrogen tartrate]
Hco-26/27 receptor
  Current elicited, % of ACh response: insensitive
Peq-26/27 receptor; 100 μM agonist, normalized to 100 μM ACh current
  Current elicited, % of ACh response: insensitive

## CN1CCCN=C1/C=C/c1cccc(O)c1 [Oxa, oxantel]
Hco-26/27 receptor; [1]
  Current elicited, % of ACh response: insensitive
Hco-26/27 receptor; [2]
  Emax at 100 µM: 0.95 ± 0.95%
